Laboratory results reported in US20260200897A1, “4-((5-(3-(4-(PYRIDIN-2-YL)CYCLOPENTYL)-1H-PYRAZOL-3-YL)AMINO)-BENZENESULFONAMIDE DERIVATIVES AND SIMILAR COMPOUNDS AS CDK INHIBITORS FOR THE TREATMENT OF CANCER” (BeOne Medicines I GmbH, priority 2023, published 2026).

Columns and labels:
CDK2/Cyclin E1 = CDK2/Cyclin E1 (Homo sapiens, UniProt P24941); assay: CDK2/Cyclin E1 TR-FRET biochemical assay, 1 mM ATP; conditions: 0.15 μM Rb (Ser780)-biotin substrate, 90 min reaction, Table 2
Experimental: (§1) Compounds disclosed herein were tested for inhibition of CDK2/Cyclin E1 or CDK1/Cyclin B kinase in an assay based on the time-resolved fluorescence-resonance energy transfer (TR-FRET) methodology. The assay was carried out in 384-well low volume black plates in a reaction mixture containing CDK2/Cyclin E1 or CDK1/Cyclin B1, 1 mM ATP for CDK2/Cyclin E1 and CDK1/Cyclin B1, 0.15 μM Rb (Ser780)-biotin substrate and 0-10 μM compound in buffer containing 50 mM HEPES pH7.0, 0.02% NaN3, 0.01% BSA, 0.1 mM Orthovanadate, 50 mM MgCl2, 1 mM DTT and 0.005% Tween-20. The kinase was incubated with compound for 60 minutes at room temperature and the reaction was initiated by the addition of ATP and Rb (Ser780)-biotin substrate. After reaction at room temperature for 90 minutes, an equal volume of stop/detection solution was added according to the manufacture's instruction (Cisbio Bioassays). The stop/detection solution contained Streptavidin-XL665 and Anti-pRb (Ser780) mAb-Eu Cryptate in Detection buffer (Cisbio Bioassays). Plates were incubated at room temperature for 60 minutes, and the TR-FRET signals (ex337 nm, em665 nm/620 nm) were recorded on a PHERAstar FSX plate reader (BMG Labtech). The inhibition percentage of CDK2/Cyclin E1 or CDK1/Cyclin B1 kinase activity in presence of increasing concentrations of compounds was calculated based on the ratio of fluorescence at 665 nm to that at 620 nm. The IC50 for each compound was derived from fitting the data to the four-parameter logistic equation by Dotmatics.

CDK1/Cyclin B1 = CDK1/Cyclin B1 (Homo sapiens, UniProt P06493); assay: CDK1/Cyclin B1 TR-FRET biochemical assay, 1 mM ATP; conditions: 0.15 μM Rb (Ser780)-biotin substrate, 90 min reaction, Table 2
Experimental: as §1

Sequence of CDK1/Cyclin B1 (P06493 whole entry): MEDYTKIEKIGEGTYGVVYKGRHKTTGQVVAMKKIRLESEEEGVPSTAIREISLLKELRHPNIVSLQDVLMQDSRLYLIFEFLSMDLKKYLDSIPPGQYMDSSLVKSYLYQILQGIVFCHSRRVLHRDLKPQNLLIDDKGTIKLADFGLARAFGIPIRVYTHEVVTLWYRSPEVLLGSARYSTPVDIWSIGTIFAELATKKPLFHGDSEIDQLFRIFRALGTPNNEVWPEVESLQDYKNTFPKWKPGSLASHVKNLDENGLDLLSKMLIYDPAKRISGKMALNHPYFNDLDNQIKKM
Sequence of CDK1/Cyclin B1 (P14635 whole entry partner): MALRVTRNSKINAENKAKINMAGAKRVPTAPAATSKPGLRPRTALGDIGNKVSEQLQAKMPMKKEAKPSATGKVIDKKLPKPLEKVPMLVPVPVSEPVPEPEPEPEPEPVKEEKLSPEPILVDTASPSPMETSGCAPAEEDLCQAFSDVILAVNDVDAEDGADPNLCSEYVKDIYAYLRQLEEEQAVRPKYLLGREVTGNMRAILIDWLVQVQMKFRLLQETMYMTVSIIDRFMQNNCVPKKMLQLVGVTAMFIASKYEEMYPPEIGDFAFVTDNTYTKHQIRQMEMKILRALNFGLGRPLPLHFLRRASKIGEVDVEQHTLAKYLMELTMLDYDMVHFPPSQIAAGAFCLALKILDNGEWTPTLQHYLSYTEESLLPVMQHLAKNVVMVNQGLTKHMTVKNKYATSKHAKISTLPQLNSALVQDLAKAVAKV

| IC50 (CDK2/Cyclin E1) | IC50 (CDK1/Cyclin B1) | Compound |
| --- | --- | --- |
| 235 nM | > 10000 nM | COC(=O)c1nc(C2CCC(c3cc(Nc4ccc5c(c4F)CNS5(=O)=O)n[nH]3)C2)oc1C(C)(C)C (stereo not drawn) [Example 113, methyl 5-(tert-butyl)-2-(3-(3-((4-fluoro-1,1-dioxido-2,3-dihydrobenzo[d]isothiazol-5-yl)amino)-1H-pyrazol-5-yl)cyclopentyl)oxazole-4-carboxylate] |
| 74 nM | > 10000 nM | CC(C)(C)c1nnc([C@@H]2CC[C@H](c3cc(Nc4ccc5c(c4F)CS(=O)(=O)N5)n[nH]3)C2)o1 (relative stereo) [Example 146, cis-5-((5-(3-(5-(tert-butyl)-1,3,4-oxadiazol-2-yl)cyclopentyl)-1H-pyrazol-3-yl)amino)-4-fluoro-1,3-dihydrobenzo[c]isothiazole 2,2-dioxide] |
| 2.8 nM | 238 nM | CC(C)c1cnc(C2CCC(c3cc(Nc4ccc5c(c4F)CS(=O)(=O)N5)n[nH]3)C2)o1 (single isomer, unassigned) [Example 152a, cis-4-fluoro-5-((5-(3-(5-isopropyloxazol-2-yl)cyclopentyl)-1H-pyrazol-3-yl)amino)-1,3-dihydrobenzo[c]isothiazole 2,2-dioxide] |
| > 10000 nM | > 10000 nM | CC(C)(C)c1cnc(C2CCC(c3cc(Nc4ccc5c(c4F)CNS5(=O)=O)n[nH]3)C2)[nH]1 (stereo not drawn) [Example 103, 5-((5-(3-(5-(tert-butyl)-1H-imidazol-2-yl)cyclopentyl)-1H-pyrazol-3-yl)amino)-4-fluoro-2,3-dihydrobenzo[d]isothiazole 1,1-dioxide] |
| 2760 nM | > 10000 nM | COc1cccc(C2CCC(c3cc(Nc4cc5c(cc4F)S(=O)(=O)NC5)n[nH]3)C2)n1 (stereo not drawn) [Example 11, 6-fluoro-5-((5-(3-(6-methoxypyridin-2-yl)cyclopentyl)-1H-pyrazol-3-yl)amino)-2,3-dihydrobenzo[d]isothiazole 1,1-dioxide] |
| > 10000 nM | > 10000 nM | CC(C)(C)c1cccc(C2=CC(c3cc(Nc4ccc5c(c4F)CS(=O)(=O)N5)n[nH]3)CC2)n1 (stereo not drawn) [Example 157, 5-((5-(3-(6-(tert-butyl)pyridin-2-yl)cyclopent-2-en-1-yl)-1H-pyrazol-3-yl)amino)-4-fluoro-1,3-dihydrobenzo[c]isothiazole 2,2-dioxide] |
| 16 nM | 2020 nM | CC(C)(C)c1cnnc(C2CCC(c3cc(Nc4ccc5c(c4F)CS(=O)(=O)N5)n[nH]3)C2)c1 (stereo not drawn) [Example 163, 5-((5-(3-(5-(tert-butyl)pyridazin-3-yl)cyclopentyl)-1H-pyrazol-3-yl)amino)-4-fluoro-1,3-dihydrobenzo[c]isothiazole 2,2-dioxide] |
| 173 nM | > 10000 nM | CC(C)(C)c1cnc(C2CCC(c3cc(Nc4ccc5c(c4)CN=S5(C)=O)n[nH]3)C2)o1 (single isomer, unassigned) [Example 169d, 5-((5-(3-(5-(tert-butyl)oxazol-2-yl)cyclopentyl)-1H-pyrazol-3-yl)amino)-1-methyl-3H-1λ^4-benzo[d]isothiazole 1-oxide] |
| 429 nM | > 10000 nM | CCOC(=O)c1nc(C2CCC(c3cc(Nc4ccc5c(c4F)CNS5(=O)=O)n[nH]3)C2)oc1C(C)(C)C (stereo not drawn) [Example 114, ethyl 5-(tert-butyl)-2-(3-(3-((4-fluoro-1,1-dioxido-2,3-dihydrobenzo[d]isothiazol-5-yl)amino)-1H-pyrazol-5-yl)cyclopentyl)oxazole-4-carboxylate] |
| 7200 nM | > 10000 nM | CC(C)(C)c1cnc(C2CCC(c3cc(Nc4ccc5c(c4F)CNS5(=O)=O)n[nH]3)C2)s1 (stereo not drawn) [Example 95, 5-((5-(3-(5-(tert-butyl)thiazol-2-yl)cyclopentyl)-1H-pyrazol-3-yl)amino)-4-fluoro-2,3-dihydrobenzo[d]isothiazole 1,1-dioxide] |
| 2.8 nM | 198 nM | CC(C)(C)c1cnc(C2CCC(c3cc(Nc4ccc5c(c4F)CS(=O)(=O)C5)n[nH]3)C2)o1 (stereo not drawn) [Example 173, 5-((5-(3-(5-(tert-butyl)oxazol-2-yl)cyclopentyl)-1H-pyrazol-3-yl)amino)-4-fluoro-1,3-dihydrobenzo[c]thiophene 2,2-dioxide] |
| 93 nM | > 10000 nM | CC(C)c1cnc(C2CCC(c3cc(Nc4ccc(S(N)(=O)=O)cc4F)n[nH]3)C2)o1 (stereo not drawn) [Example 7, 3-fluoro-4-((5-(3-(5-isopropyloxazol-2-yl)cyclopentyl)-1H-pyrazol-3-yl)amino)benzenesulfonamide] |
| 6 nM | 624 nM | CN1c2ccc(Nc3cc(C4CCC(c5ncc(C(C)(C)C)o5)C4)[nH]n3)cc2CS1(=O)=O (stereo not drawn) [Example 140, 5-((5-(3-(5-(tert-butyl)oxazol-2-yl)cyclopentyl)-1H-pyrazol-3-yl)amino)-1-methyl-1,3-dihydrobenzo[c]isothiazole 2,2-dioxide] |
| 167 nM | > 10000 nM | CC(C)(C)c1cnnc(C2CCC(c3cc(Nc4ccc5c(c4F)CNS5(=O)=O)n[nH]3)C2)c1 (stereo not drawn) [Example 131, 5-((5-(3-(5-(tert-butyl)pyridazin-3-yl)cyclopentyl)-1H-pyrazol-3-yl)amino)-4-fluoro-2,3-dihydrobenzo[d]isothiazole 1,1-dioxide] |
| 453 nM | > 10000 nM | CC(C)(C)n1ccc(C2CCC(c3cc(Nc4ccc5c(c4F)CNS5(=O)=O)n[nH]3)C2)n1 (stereo not drawn) [Example 98, 5-((5-(3-(1-(tert-butyl)-1H-pyrazol-3-yl)cyclopentyl)-1H-pyrazol-3-yl)amino)-4-fluoro-2,3-dihydrobenzo[d]isothiazole 1,1-dioxide] |
| 5910 nM | > 10000 nM | Cn1ncc(C(C)(C)C)c1O[C@@H]1CC[C@H](c2cc(Nc3ccc4c(c3F)CNS4(=O)=O)n[nH]2)C1 (relative stereo) [Example 72, cis-5-((5-(3-((4-(tert-butyl)-1-methyl-1H-pyrazol-5-yl)oxy)cyclopentyl)-1H-pyrazol-3-yl)amino)-4-fluoro-2,3-dihydrobenzo[d]isothiazole 1,1-dioxide] |
| 7 nM | 1520 nM | CC(C)c1ccnc(C2CCC(c3cc(Nc4ccc5c(c4F)CS(=O)(=O)C5)n[nH]3)C2)c1 (stereo not drawn) [Example 178, 4-fluoro-5-((5-(3-(4-isopropylpyridin-2-yl)cyclopentyl)-1H-pyrazol-3-yl)amino)-1,3-dihydrobenzo[c]thiophene 2,2-dioxide] |
| 54 nM | 5710 nM | CC(C)(C)c1ncccc1O[C@@H]1CC[C@H](c2cc(Nc3ccc4c(c3)CS(=O)(=O)N4)n[nH]2)C1 (relative stereo) [Example 139, cis-5-((5-(3-((2-(tert-butyl)pyridin-3-yl)oxy)cyclopentyl)-1H-pyrazol-3-yl)amino)-1,3-dihydrobenzo[c]isothiazole 2,2-dioxide] |
| 3 nM | 2000 nM | CC(C)(C)c1cnc(C2CCC(c3cc(Nc4ccc(S(N)(=O)=O)cc4F)n[nH]3)C2)o1 (single isomer, unassigned) [Example 6a, 4-((5-(3-(5-(tert-butyl)oxazol-2-yl)cyclopentyl)-1H-pyrazol-3-yl)amino)-3-fluorobenzenesulfonamide] |
| 438 nM | > 10000 nM | CC(C)(C)c1ccc(C2CCC(c3cc(Nc4ccc5c(c4F)CS(=O)(=O)C5)n[nH]3)C2)o1 (stereo not drawn) [Example 176, 5-((5-(3-(5-(tert-butyl)furan-2-yl)cyclopentyl)-1H-pyrazol-3-yl)amino)-4-fluoro-1,3-dihydrobenzo[c]thiophene 2,2-dioxide] |
| 725 nM | > 10000 nM | CC(C)(C)c1cccc(C2CCC(c3cc(Nc4ccc5c(c4F)CNS5(=O)=O)[nH]n3)C2)n1 (stereo not drawn) [Example 118, 5-((3-(3-(6-(tert-butyl)pyridin-2-yl)cyclopentyl)-1H-pyrazol-5-yl)amino)-4-fluoro-2,3-dihydrobenzo[d]isothiazole 1,1-dioxide] |
| 16 nM | 6850 nM | CC1(c2cnc(C3CCC(c4cc(Nc5ccc6c(c5F)CNS6(=O)=O)n[nH]4)C3)o2)CC1 (stereo not drawn) [Example 112, 4-fluoro-5-((5-(3-(5-(1-methylcyclopropyl)oxazol-2-yl)cyclopentyl)-1H-pyrazol-3-yl)amino)-2,3-dihydrobenzo[d]isothiazole 1,1-dioxide] |
| 43 nM | > 10000 nM | Cc1nc(C2CCC(c3cc(Nc4cc5c(cc4F)S(=O)(=O)NC5)n[nH]3)C2)oc1C(C)(C)C (stereo not drawn) [Example 19, 5-((5-(3-(5-(tert-butyl)-4-methyloxazol-2-yl)cyclopentyl)-1H-pyrazol-3-yl)amino)-6-fluoro-2,3-dihydrobenzo[d]isothiazole 1,1-dioxide] |
| 21 nM | 2350 nM | CC(C)(C)c1cnc(C2CCC(c3cc(Nc4ccc5c(c4)CN=S5(C)=O)n[nH]3)C2)o1 (single isomer, unassigned) [Example 169b, 5-((5-(3-(5-(tert-butyl)oxazol-2-yl)cyclopentyl)-1H-pyrazol-3-yl)amino)-1-methyl-3H-1λ^4-benzo[d]isothiazole 1-oxide] |
